Laboratory results from ChEMBL document CHEMBL1152627, “Structure-activity relationship of antiparasitic and cytotoxic indoloquinoline alkaloids, and their tricyclic and bicyclic analogues” (Bioorg Med Chem, 2009).
Structures can show the parent of a compound that is named as a salt. Activity calls are given as the source filed them. The rule behind the calls is not given here.

Tested on: Trypanosoma brucei rhodesiense
Assay: Antitrypanosomal activity against Trypanosoma brucei rhodesiense
Type: functional, organism-based
Details: Trypanosoma brucei

Row | Structure (SMILES) | IC50 [µM]
1 | Cn1cc2ccccc2c2ccnc1-2 | 8.4
2 | Cn1cc2nccc-2c2ccccc21 | 31.5
3 | Cn1cc2ccccc2c2nc3ccccc3c1-2 | 0.55

Tested on: Plasmodium falciparum
Assay: Antimalarial activity against Plasmodium falciparum isolates
Type: functional, organism-based
Details: not given

Row | Structure (SMILES) | IC50 [µM]
4 | C=Cc1ncc(OC)c2c1[nH]c1ccc(O)cc12 | 13.7
5 | C=Cc1ncc(OC)c2c1[nH]c1ccccc12 | 10.7

Tested on: Plasmodium falciparum
Assay: Antimalarial activity against chloroquine and pyrimethamine-resistant Plasmodium falciparum K1
Type: functional, organism-based
Details: not given

Row | Structure (SMILES) | IC50 [µM]
6 | Cc1c2[nH]c3ccccc3c2cc[n+]1C | 5.1
7 | C[n+]1ccc2c(c1)[nH]c1ccccc12 [NORMELINONINE F HYDROCHLORIDE] | 13.6

Tested on: Trypanosoma cruzi
Assay: Antitrypanosomal activity against Trypanosoma cruzi
Type: functional, organism-based
Details: Trypanosoma cruzi

Row | Structure (SMILES) | IC50 [µM]
8 | Cn1cc2ccccc2c2ccnc1-2 | 40.9
9 | O=C(Cn1ccnc1[N+](=O)[O-])NCc1ccccc1 [BENZNIDAZOLE] | 1.25
10 | Cn1cc2nccc-2c2ccccc21 | 76.8
11 | Cn1cc2ccccc2c2nc3ccccc3c1-2 | 1.53

Tested on: Plasmodium berghei
Assay: Antimalarial activity against Plasmodium berghei ANKA infected in Swiss mice (Mus musculus) assessed as parasitaemia level at 10 mg/kg, intraperitoneally dosed for 5 consecutive days measured 4 days post infection
Details: route intraperitoneal

Row | Structure (SMILES) | Activity [%]
12 | CCN(CC)CCCC(C)Nc1ccnc2cc(Cl)ccc12 (configuration not stated) [CHLOROQUINE] | 5.24

Tested on: not listed separately
Assay: (§1) Toxicity against rat L6 cells
Type: cell-based
Details: rat, L6 cells

Row | Structure (SMILES) | IC50 [µM]
13 | CCN(CC)CCCC(C)Nc1ccnc2cc(Cl)ccc12 (configuration not stated) [CHLOROQUINE] | 43.1
14 | CCCCCCCCCCCCCCCCOP(=O)([O-])OCC[N+](C)(C)C [MILTEFOSINE] | 58.4
15 | Cn1cc2ccccc2c2ccnc1-2 | 153
16 | O=C(Cn1ccnc1[N+](=O)[O-])NCc1ccccc1 [BENZNIDAZOLE] | > 90
17 | Cn1cc2nccc-2c2ccccc21 | 160
18 | Nc1nc(N)nc(Nc2ccc([As]3SCC(CO)S3)cc2)n1 (configuration not stated) [MELARSOPROL] | 8.6

Tested on: L6
Assay: as §1
Type: cell-based
Details: l6

Row | Structure (SMILES) | IC50 [µM]
19 | Cn1cc2ccccc2c2nc3ccccc3c1-2 | 2.2

Tested on: Plasmodium berghei
Assay: Antimalarial activity against Plasmodium berghei ANKA infected in Swiss mice (Mus musculus) assessed as suppression of parasitaemia at 10 mg/kg, intraperitoneally dosed for 5 consecutive days measured 4 days post infection relative to untreated control
Details: route intraperitoneal

Row | Structure (SMILES) | Activity [%]
20 | CCN(CC)CCCC(C)Nc1ccnc2cc(Cl)ccc12 (configuration not stated) [CHLOROQUINE] | 86.3

Tested on: not listed separately
Assay: Inhibition of beta-hematin formation by BHIA assay
Type: functional
Details: not given

Row | Structure (SMILES) | inhibition
21 | C[n+]1ccc2c(c1)[nH]c1ccccc12 | inactive

Tested on: Plasmodium falciparum
Assay: Antimalarial activity against chloroquine-resistant Plasmodium falciparum W2
Type: functional, organism-based
Details: not given

Row | Structure (SMILES) | IC50 [µM]
22 | Cc1nccc2c1[nH]c1ccccc12 [HARMAN] | 7.1
23 | CC1NCCc2c1[nH]c1ccccc21 (configuration not stated) [TETRAHYDROHARMAN] | 7.5

Tested on: Plasmodium falciparum
Assay: Antimalarial activity against chloroquine and pyrimethamine-resistant Plasmodium falciparum K1 by [3H]hypoxanthine incorporation assay
Type: functional, organism-based
Details: not given

Row | Structure (SMILES) | IC50 [µM]
24 | Cn1cc2ccccc2c2nc3ccccc3c1-2 | 0.57

Same assay, conditions: Plasmodium falciparum, K1

Row | Structure (SMILES) | IC50 [µM]
25 | Cn1cc2ccccc2c2ccnc1-2 | 7.8
26 | Cn1cc2nccc-2c2ccccc21 | 3.2

Tested on: Plasmodium falciparum
Assay: Antimalarial activity against chloroquine-sensitive Plasmodium falciparum D6
Type: functional, organism-based
Details: not given

Row | Structure (SMILES) | IC50 [µM]
27 | Cc1nccc2c1[nH]c1ccccc12 [HARMAN] | 12.1
28 | CC1NCCc2c1[nH]c1ccccc21 (configuration not stated) [TETRAHYDROHARMAN] | 20.1

Tested on: Plasmodium berghei
Assay: Antimalarial activity against Plasmodium berghei ANKA infected in Swiss mice (Mus musculus) assessed as mice (Mus musculus) survival at 10 mg/kg, intraperitoneally dosed for 5 consecutive days measured 7 days post infection
Details: ip, 168 h

Row | Structure (SMILES) | survival at 10 mg/kg [%]
29 | CCN(CC)CCCC(C)Nc1ccnc2cc(Cl)ccc12 (configuration not stated) [CHLOROQUINE] | 100

Tested on: not listed separately
Assay: Selectivity index, ratio of IC50 for mice (Mus musculus) FM3A cells to IC50 for chloroquine-sensitive Plasmodium falciparum FCR3/Gambia
Type: toxicity, cell-based
Details: read-out: Ratio IC50

Row | Structure (SMILES) | selectivity ratio
30 | COc1c[n+](C)c(C)c2[nH]c3ccccc3c12 | > 32
31 | COc1ccc2c3cc[n+](C)c(C)c3n(C)c2c1 | > 32
32 | CCc1c2[nH]c3ccccc3c2c(OC)c[n+]1C | > 32
33 | Cc1c2[nH]c3ccccc3c2cc[n+]1C | 18
34 | C=Cc1c2[nH]c3ccccc3c2c(OC)c[n+]1CC | > 32

Tested on: Plasmodium falciparum
Assay: Antimalarial activity against chloroquine-sensitive Plasmodium falciparum FCR3/Gambia
Type: functional
Details: FCR-3/Gambia

Row | Structure (SMILES) | IC50 [µM]
35 | COc1c[n+](C)c(C)c2[nH]c3ccccc3c12 | < 1
36 | COc1ccc2c3cc[n+](C)c(C)c3n(C)c2c1 | < 1
37 | CCc1c2[nH]c3ccccc3c2c(OC)c[n+]1C | < 1
38 | C=Cc1c2[nH]c3ccccc3c2c(OC)c[n+]1CC | < 1

Tested on: THP-1
Assay: Cytotoxicity in human THP1 cells
Type: cell-based
Details: not given

Row | Structure (SMILES) | IC50 [µM]
39 | Cc1nccc2c1[nH]c1ccccc12 [HARMAN] | 121
40 | CC1NCCc2c1[nH]c1ccccc21 (configuration not stated) [TETRAHYDROHARMAN] | 403

Tested on: FM3A
Assay: Cytotoxicity in mouse FM3A cells
Type: cell-based
Details: not given

Row | Structure (SMILES) | IC50 [µM]
41 | COc1c[n+](C)c(C)c2[nH]c3ccccc3c12 | > 10
42 | COc1ccc2c3cc[n+](C)c(C)c3n(C)c2c1 | > 10
43 | CCc1c2[nH]c3ccccc3c2c(OC)c[n+]1C | > 10
44 | C=Cc1c2[nH]c3ccccc3c2c(OC)c[n+]1CC | > 10

Tested on: Leishmania donovani
Assay: Antileishmanial activity against Leishmania donovani axenic amastigotes
Type: functional, organism-based
Details: not given

Row | Structure (SMILES) | IC50 [µM]
45 | Cn1cc2ccccc2c2nc3ccccc3c1-2 | 16.8

Same assay, conditions: Leishmania donovani

Row | Structure (SMILES) | IC50 [µM]
46 | Cn1cc2ccccc2c2ccnc1-2 | 97.5
47 | Cn1cc2nccc-2c2ccccc21 | 169
